Test [1] relates to DBA/1 J mice with collagen-induced arthritis. The test is described as follows: Collagen-induced arthritis (CIA) model. The format is in vivo, mouse. The settings on record: dexamethasone 0.2 mg/kg once a day. The method, then: All animal experimental protocols were approved by the animal care and use committee of the Hanmi Research Center, and performed in accordance with approved guidelines. Male DBA/1 J mice (9 weeks old; n = 7 per group) were immunized with an emulsion of Complete Freund’s Adjuvant and bovine type II collagen (CII) (total volume, 0.07 mL) via intradermal injection at the base of the tail (day 0). Three weeks later, the mice received a booster immunization comprising bovine CII emulsified in Incomplete Freund’s Adjuvant. […] The arthritis score and body weight were measured three times per week for 2 weeks after administration of the drugs (Additional file 1: Figure S1). The arthritis score was determined by grading each paw from 0 to 4 based on erythema, swelling, and flexion of the joint and was expressed as the sum of the scores of all four paws. Serum levels of IL-6 were measured by Luminex analysis in a bead-based immunoassay (EMD Millipore Corporation). Serum levels of anti-CII and total IgG were measured by ELISA (Chondrex, Seattle, WA, USA; Bethyl Laboratories, Montgomery, TX, USA).
Micro-CT of the hind limbs was performed using a Siemens Inveon Micro-CT/PET scanner (Siemens Medical Solutions, Knoxville, TN, USA).
The hind legs of each mouse were fixed with 10 % formalin, decalcified in 5 % formic acid, and embedded in paraffin. Sections were then cut and stained with hematoxylin and eosin (H&E). The bone erosion index was scored from 0 to 4 according to the following criteria: 0 = no erosion, 1 = mild (focal subchondral erosion), 2 = moderate (multiple subchondral erosions), 3 = high (as above and focal erosion of talus), and 4 = maximum (multiple erosions of tarsal and metatarsal bones).
Figure S1. Experiment design of collagen induced arthritis. Untreated DBA/1J mice (n=7) served as healthy controls (Ctrl). DBA/1J mice (n= 56) were immunized Day 0 and day 21. On day 10 after boosting (i.e. day 31), the induction of CIA was evaluated. […] Immunized mice (n=42) were divided into 6 groups (n=7 in each group). […] CIA, collagen induced arthritis.

For the next test, the system named is CD3+ T cells. The test is described as follows: T cell signaling, phospho-flow of CD3/CD28-activated PBMCs. In kind it is cell-based, human. The settings on record: CD3- and CD28-conjugated beads. The method, then: For phospho-flow, B cells were activated by crosslinking their BCRs with anti-human IgM antibodies (10 μg/mL; BD Biosciences) for 10 minutes at 37 °C. Cells were then fixed with 2 % paraformaldehyde at 37 °C for 12 minutes, permeabilized, and stained with anti-CD3-FITC (SK7; BD Biosciences), anti-CD20-PerCP-Cy5.5 (H1; BD Biosciences), anti-pBtk (Y223)-Alexa647 (N35-86; BD Biosciences), anti-pPLCγ2 (Y759)-Alexa647 (K86-689.37; BD Biosciences), anti-pSTAT1 (Y701)-Alexa647 (4a; BD Biosciences), anti-pSTAT3 (Y705)-Alexa647 (4/P-STAT3; BD Biosciences), anti-pSTAT5 (Y694)-Alexa647 (47; BD Biosciences), and anti-pERK1/2 (T202/204)-Alexa647 (20A; BD Biosciences) antibodies. The cells were then washed and analyzed on an LSR II flow cytometer (BD Biosciences). Data were analyzed using FlowJo software, version 8.8 (Treestar, Ashland, OR, USA).
Figure S5. Effect of HM71224 on human T cell signaling. […] The expression level of p-STAT1, p-STAT3, p-STAT5, and p-ERK1/2 by CD3+ T cells was then measured by phospho-flow cytometry.

Three molecules from PMC4835877, “HM71224, a novel Bruton’s tyrosine kinase inhibitor, suppresses B cell and monocyte activation and ameliorates arthritis in a mouse model: a potential drug for rheumatoid arthritis” (Arthritis Research & Therapy, 2016) can be followed below.

As to `C[C@@H]1C[C@H]2[C@@H]3CCC4=CC(=O)C=C[C@]4(C)[C@@]3(F)[C@@H](O)C[C@]2(C)[C@@]1(O)C(=O)CO` [Dexa, dexamethasone, reference compound], the “AS, arthritis score” value in test [1] (D0) is 1.1±0.5; in test [1] (D1), 0.9±0.5; in test [1] (D4) it was 0.4±0.2; in test [1] (D6) it was 0.3±0.2; in test [1] (D8), 0.3±0.2; in test [1] (D12), 0.3±0.2. Further, the “AS, arthritis score” value in test [1] (D13) is 0.4±0.3; in test [1] (D15), 0.3±0.2. Moreover, in test [1] (D0), the “Wt, weight” value is listed as 22.9±0.4 gram.
On to `C=CC(=O)N1CCC[C@@H](n2nc(-c3ccc(Oc4ccccc4)cc3)c3c(N)ncnc32)C1` [PCI-32765, Ibrutinib], for which, in the test with CD3+ T cells, the “T cell receptor signaling (p-STAT1, p-STAT3 and p-STAT5)” value was “not affected”; the “p-ERK1/2 in CD3+ T cells” value is listed as “inhibited”.
As to `C[C@@H]1CCN(C(=O)CC#N)C[C@@H]1N(C)c1ncnc2[nH]ccc12` [Tofacitinib], the “T cell receptor signaling (p-STAT1, p-STAT3 and p-STAT5)” value in the test on CD3+ T cells is “significantly suppressed”.
